# System: genotype A, "Long" strain RSV
# Test: RSV-A assay (CPE, ATPlite readout in Hep-2 cells)
# Assay type: cell-based
# Settings: human respiratory syncytial virus, HEp-2, Hep-2 cells, genotype A "Long" strain RSV, MOI 0.1; read-out: Human RSV-A (“Long” strain) EC50
# Outline: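 Hep-2 cells (8,000/well) received 2-fold serial compound dilutions in duplicate and RSV Long strain at MOI 0.1. After 5 days' incubation, cell health was read as ATP by ATPlite luminescence, with virus-only and uninfected controls defining max and minimum CPE; EC50 reported.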
row,SMILES,EC50 [nM]
1,COCCNC(=O)COc1cc(C(=O)NC[C@](O)(c2cc3c(c(-c4ccc(F)cc4)n2)OC[C@]3(C)C(N)=O)C(F)(F)F)cc2cccnc12 [Example 375],> 200
2,NC(=O)C1(F)COc2c1cc([C@@](O)(CNC(=O)c1cc(OC3CC3)c3ncccc3c1)C(F)(F)F)nc2-c1ccc(F)cc1 (some centres unmarked) [Example 665],> 200
3,Cc1cnccc1-c1ccc(C(=O)NC[C@](O)(c2cc3c(c(-c4ccc(F)cc4)n2)OC[C@]3(C)C(N)=O)C(F)(F)F)cc1OC1CC1 [Example 153],> 200
4,Cn1c(=O)[nH]c2ccc(C(=O)NC[C@](O)(c3cc4c(c(-c5ccc(F)cc5)n3)OC[C@]4(C)C(N)=O)C(F)(F)F)cc21 [Example 326],> 200
5,COc1cc(C(=O)NC[C@](O)(c2cc3c(c(-c4ccc(F)cc4)n2)OC[C@@]3(C)C(N)=O)C(F)(F)F)ccc1OCCF [Example 317],> 200
6,C[C@]1(C(N)=O)COc2c1cc([C@@](O)(CNC(=O)c1cc(Nc3ccnnc3)c3ncccc3c1)C(F)(F)F)nc2-c1ccc(F)cc1 [Example 348],< 200
7,COc1cc(C(=O)NC[C@](O)(c2cc3c(c(-c4ccc(F)cc4)n2)OC[C@]3(C)C(N)=O)C(F)(F)F)ccc1F [Example 316],> 200
8,C[C@]1(C(N)=O)COc2c1cc([C@@](O)(CNC(=O)c1cc(OCC(=O)NC3CC3)c3ncccc3c1)C(F)(F)F)nc2-c1ccc(F)cc1 [Example 376],> 200
9,C[C@]1(C(N)=O)COc2c1cc([C@@](O)(CNC(=O)c1ccc(F)c(C#N)c1)C(F)(F)F)nc2-c1ccc(F)cc1 [Example 324],> 200
10,C[C@]1(C(N)=O)COc2c1cc([C@@](O)(CNC(=O)c1ccc(OC3CC3)c(C3=CCOCC3)c1)C(F)(F)F)nc2-c1ccc(F)cc1 [Example 122],< 200
11,CO[C@@H](C)COc1cc(C(=O)NC[C@](O)(c2cc3c(c(-c4ccc(F)cc4)n2)OC[C@]3(C)C(N)=O)C(F)(F)F)cc2cccnc12 [Example 286],> 200
12,COc1ccc(CC(=O)NC[C@](O)(c2cc3c(c(-c4ccc(F)cc4)n2)OC[C@]3(C)C(N)=O)C(F)(F)F)cc1 [Example 593],> 200
13,C[C@]1(C(N)=O)COc2c1cc([C@@](O)(CNC(=O)c1ccc3ncc(C(F)(F)F)cc3c1)C(F)(F)F)nc2-c1ccc(F)cc1 [Example 651],< 200
14,Cn1cc2cc(C(=O)NC[C@](O)(c3cc4c(c(-c5ccc(F)cc5)n3)OC[C@]4(C)C(N)=O)C(F)(F)F)cc(F)c2n1 [Example 654],< 200
15,C[C@]1(C(N)=O)COc2c1cc([C@@](O)(CNC(=O)c1cc(OC(F)(F)C(N)=O)c3ncccc3c1)C(F)(F)F)nc2-c1ccc(F)cc1 [Example 365],< 200
16,COc1cc(C(=O)NC[C@](O)(c2cc3c(c(C#Cc4cc(F)c(F)c(F)c4)n2)OC[C@]3(C)C(N)=O)C(F)(F)F)ccc1OC1CC1 [Example 511],> 200
17,COc1cccc2cc(C(=O)NC[C@](O)(c3cc4c(c(-c5ccc(F)cc5)n3)OC[C@]4(C)C(N)=O)C(F)(F)F)[nH]c12 [Example 603],> 200
18,COc1cc(C(=O)NC[C@](O)(c2cc3c(c(-c4ccc(Cl)c(F)c4)n2)OC[C@]3(C)C(N)=O)C(F)(F)F)cc2cc(C)cnc12 [Example 260],< 200
19,C[C@]1(C(N)=O)COc2c1cc([C@@](O)(CNC(=O)c1ccc(-c3cnc(C4CC4)nc3)c(OC3CC3)c1)C(F)(F)F)nc2-c1ccc(F)cc1 [Example 165],> 200
20,COc1cc(C(=O)NC[C@](O)(c2cc3c(c(-c4ccc(F)cc4)n2)OC[C@]3(C)C(N)=O)C(F)(F)F)cc2cccnc12 [Example 28],< 200
21,C[C@]1(C(N)=O)COc2c1cc([C@@](O)(CNC(=O)c1ccc(-c3cccc(C(F)(F)F)n3)c(OC3CC3)c1)C(F)(F)F)nc2-c1ccc(F)cc1 [Example 162],> 200
22,Cc1cc2cc(C(=O)NC[C@](O)(c3cc4c(c(-c5ccc(F)cc5)n3)OC[C@]4(C)C(N)=O)C(F)(F)F)cc(NC(=O)NCC(C)(C)O)c2nc1C [Example 661],< 200
23,C[C@]1(C(N)=O)COc2c1cc([C@@](O)(CNC(=O)c1cc(OC3CC3)c3ncccc3c1)C(F)(F)F)nc2-c1ccc(Cl)c(F)c1 [Example 282],< 200
